# Literature values as cited in patent US7993683B2, “Compositions for the treatment of chronic degenerative inflammatory conditions” (Indena S.p.A., priority 2006, dated 2011).
# Legend:
# [1] = test system: TNF-induced enhancement of endothelial monocyte adesion; conditions: added to endothelial cell culture together with tumour necrosis factor (TNF)
# [2] = test system: pro-inflammatory cytokines
smiles,measurement,setting,value
C=C1CC[C@@H]2[C@](C)(CO)[C@H](O)CC[C@@]2(C)[C@@H]1C/C=C1/C(=O)OC[C@H]1O [andrographolide],TNF-induced enhancement of endothelial monocyte adesion,[1],concentration depended reduction
same,synthesis of pro-inflammatory cytokines,[2],inhibits
